Measured values as given in publication PMC2360155, “Novel retinoic acid metabolism blocking agents have potent inhibitory activities on human breast cancer cells and tumour growth” (British Journal of Cancer, 2007).

Columns and labels:
[1] = target: T1, RARβ (Mus musculus, UniProt P22605); test: Transactivation assay (RARE-CAT reporter, CV-1 cells), RARβ; format: cell-based; conditions: 50% of maximal activity obtained with 10^−6 M all-trans-RA
T1 construct: expressed in transfected cells; host or cells: CV-1 cells
T1 sequence (P22605 1-448 isoform P22605-3): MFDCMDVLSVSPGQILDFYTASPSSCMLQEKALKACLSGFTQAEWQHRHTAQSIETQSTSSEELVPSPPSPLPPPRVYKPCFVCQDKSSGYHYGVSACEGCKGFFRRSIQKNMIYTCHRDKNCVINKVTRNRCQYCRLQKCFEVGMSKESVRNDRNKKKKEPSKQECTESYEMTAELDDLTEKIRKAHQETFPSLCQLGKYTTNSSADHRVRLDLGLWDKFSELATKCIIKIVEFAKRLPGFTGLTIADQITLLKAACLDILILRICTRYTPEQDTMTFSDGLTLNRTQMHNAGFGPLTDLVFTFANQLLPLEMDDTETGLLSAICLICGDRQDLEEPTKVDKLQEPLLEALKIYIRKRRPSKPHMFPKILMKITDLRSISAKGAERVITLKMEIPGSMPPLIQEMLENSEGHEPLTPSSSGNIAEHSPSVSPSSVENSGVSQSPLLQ
Procedure: Briefly, CV-1 cells were cotransfected with 4 μg RAR subtype (RARα, RARβ or RARγ) expression vector construct in pSG5, 4 μg RARE-CAT reporter DNA and 1 μg pCMV-β-gal DNA. Twenty-four hours following transfection, the cells were treated with various concentrations of each RAMBA ranging from 10^−11–10^−5 M along with an ethanol carrier control. Additional cells were treated with 10^−6 M all-trans-RA for normalisation. Twenty-four hours later, the cells were harvested and CAT and β-gal activities were assayed.

[2] = tested on: MCF-7 tumour xenografts; test: In vivo antitumour study, ATRA and VN/14-1 alone or in combination, MCF-7 tumour xenografts; design: species or system ovariectomised female athymic nude mice; conditions: single agents: ATRA 33.0, VN/14-1 16.5 μmol kg^−1 day^−1; 36 days
Procedure: The second experiment was similar to that described above, but consisted of only four groups. When the tumour volume has reached about 100 mm^3, the mice were randomly divided in to four groups of five mice each. […] These treatments continued for 36 days and the tumours were measured and processed as described above.
Procedure was similar to that described in Figure 8A.

[3] = tested on: Bad; test: Western immunoblotting for Bad in MCF-7 and T47D cells; format: cell-based, human; conditions: 1, 5 and 10 μM each; 6 days; no significant dose-dependent effect
Procedure: At the end of the treatment, cells were scrapped and collected by washing with ice-cold PBS in a centrifuge tube. Cells were centrifuged at 2500 r.p.m. for 10 min, the pellet was again washed with ice-cold PBS and centrifuged. The cell pellet was then suspended in chilled cell lysis buffer (0.1 M Tris–HCl, 0.5% Triton X-100, protease inhibitor cocktail) and sonicated on ice for 10–15 s. The homogenate was kept on ice for 30 min and then centrifuged at 13 000 r.p.m. for 30 min. The supernatant was used as cell lysate. The cell lysates were stored at −80°C. Protein concentration of the cell lysates was determined using Bio-Rad protein assay reagents.
Protein lysates from MCF-7 and T47D cells were subjected to sodium dodecyl sulphate–polyacrylamide gel electrophoresis (SDS–PAGE) and immunoblotted for different proteins. […] Immunoreactive bands were visualised using the enhanced chemiluminescence detection reagents and analysis system (Amersham Bioscences) according to the manufacturer's instructions and quantified by densitometry using ImageQuant software version 5.
Figure 7 (A) Western immunoblotting of whole-cell lysates of treated MCF-7 and T47D cells for the expression of Bad. […] Numbers below the blot show fold increase in expression of the protein as analysed by ImageQuant densitometry analysis. […]

[4] = tested on: MDA-MB-231 cells; design: method as in Patel et al. (2004); conditions: inhibition of cell proliferation by 50%; ref Patel et al. (2004); read-out: Cellular IC50, MDA-MB-231; cited from earlier work

Row | Structure (SMILES) | EC50 [1] [µM] | Tumour growth inhibition compared with controls (in words) [2] | Upregulation of Bad protein [3] | IC50 [4] [µM]
1 | CC1=C(/C=C/C(C)=C/C=C/C(C)=C\C(=O)Nc2ccc(O)cc2)C(C)(C)CCC1n1ccnc1 (stereo not shown) [VN/69-1] | > 10 | – | – | –
2 | CC1=C(/C=C/C(C)=C/C=C/C(C)=C/C(=O)O)C(C)(C)CCC1 [ATRA, all-trans-retinoic acid, reference compound] | – | modest tumour growth inhibition | about two-fold | –
3 | CC1=C(/C=C/C(C)=C/C=C/C(C)=C/C(=O)Nc2ccc(O)cc2)C(C)(C)CCC1n1ccnc1 (stereo not shown) [VN/66-1] | – | – | – | 5.62
4 | CC1=C(/C=C/C(C)=C/C=C/C(C)=C/C(=O)O)C(C)(C)CCC1n1ccnc1 (stereo not shown) [VN/14-1] | 1.5 | modest tumour growth inhibition | about two-fold | –
